Laboratory results published in US10131664B2 (Celgene Quanticel Research, Inc., priority 2013, dated 2018).

Assays:
full-length human LSD1 = full-length human LSD1 (Homo sapiens (Human), UniProt O60341); assay: In vitro enzyme inhibition assay LSD-1 (TR-FRET); format: biochemical; settings: TR-FRET, 0.1 nM LSD1, 50 nM H3K4me1-biotin peptide, 2 μM FAD, pH7.3; read-out: LSD1 IC50
Protocol: This assay determines the ability of a test compound to inhibit LSD1 demethylase activity.
The enzymatic assay of LSD1 activity is based on Time Resolved-Fluorescence Resonance Energy Transfer (TR-FRET) detection.
The ability of the compounds disclosed herein to inhibit LSD1 activity was quantified and the respective IC50 value was determined. Table 5 provides the IC50 values of various substituted heterocyclic compounds disclosed herein.

THP-1 (AML) cells = assay: LSD1 CD11b cellular assay (flow cytometry); format: cell-based; settings: Homo sapiens, 96 h; CD11b expression in THP-1 (AML) cells, flow cytometry, 4 days incubation; read-out: Cellular IC50
Outline: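 THP-1 AML cells treated with serially diluted compound (0.2% DMSO final) for 4 days at 37 °C, 5% CO2. CD11b expression measured by flow cytometry with DAPI staining; IC50 derived from percent CD11b-positive cells versus inhibitor concentration.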

IC50 (full-length human LSD1)	IC50 (THP-1 (AML) cells)	SMILES
< 100 nM	< 100 nM	COc1nc(N2CCCNCC2)nc(-c2ccc(C#N)c(F)c2)c1-c1ccc2nn(C)cc2c1 [Example 148, 4-[2-(1,4-diazepan-1-yl)-6-methoxy-5-(2-methyl-2H-indazol-5-yl)pyrimidin-4-yl]-2-fluorobenzonitrile]
< 100 nM	< 100 nM	COc1nc(N2CCCC(N)CC2)nc(-c2ccc(C#N)c(F)c2)c1-c1ccc2nn(C)cc2c1 (stereo not shown) [Example 149, 4-[2-(4-aminoazepan-1-yl)-6-methoxy-5-(2-methyl-2H-indazol-5-yl)pyrimidin-4-yl]-2-fluorobenzonitrile]
< 100 nM	< 100 nM	COc1nc(N2CCC(N)CC2)nc(-c2ccc(C#N)cc2)c1-c1ccc2c(c1)nnn2C [Example 154, 4-[2-(4-aminopiperidin-1-yl)-6-methoxy-5-(1-methyl-1H-1,2,3-benzotriazol-5-yl)pyrimidin-4-yl]benzonitrile]
< 100 nM	< 100 nM	COc1nc(N2CCC(N)CC2)nc(-c2ccc(C#N)cc2)c1-c1cnc(N(C)C)nc1 [Example 156, 4-[2-(4-aminopiperidin-1-yl)-5-[2-(dimethylamino)pyrimidin-5-yl]-6-methoxypyrimidin-4-yl]benzonitrile]
< 100 nM	< 100 nM	CNc1nc(N2CCC(N)CC2)nc(-c2ccc(C#N)c(F)c2)c1-c1ccc2nn(C)cc2c1 [Example 160, 4-[2-(4-aminopiperidin-1-yl)-5-(2-methyl-2H-indazol-5-yl)-6-(methylamino)-pyrimidin-4-yl]-2-fluorobenzonitrile]
< 100 nM	< 100 nM	CNc1nc(N2CCCNCC2)nc(-c2ccc(C#N)c(F)c2)c1-c1ccc2nn(C)cc2c1 [Example 162, 4-[2-(1,4-diazepan-1-yl)-5-(2-methyl-2H-indazol-5-yl)-6-(methylamino)pyrimidin-4-yl]-2-fluorobenzonitrile]
< 100 nM	< 100 nM	CNc1nc(N2CCC(N)CC2)nc(-c2ccc(C#N)c(F)c2)c1-c1cnn(CC(F)(F)F)c1 [Example 167, 4-[2-(4-aminopiperidin-1-yl)-6-(methylamino)-5-[1-(2,2,2-trifluoroethyl)-1H-pyrazol-4-yl]pyrimidin-4-yl]-2-fluorobenzonitrile]
< 100 nM	< 100 nM	CNc1nc(N2CCC(N)CC2)nc(-c2ccc(C#N)cc2)c1-c1ccc2c(c1)nnn2C [Example 170]
< 100 nM	< 100 nM	CNc1nc(N2CCC(N)CC2)nc(-c2ccc(C#N)c(F)c2)c1-c1cnc2c(cnn2C)c1 [Example 175, 4-[2-(4-aminopiperidin-1-yl)-5-{1-methyl-1H-pyrazolo[3,4-b]pyridin-5-yl}-6-(methylamino)pyrimidin-4-yl]-2-fluorobenzonitrile]

The remaining lines, values behind:

SMILES	IC50 (full-length human LSD1)	IC50 (THP-1 (AML) cells)
COc1nc(N2CCC(N)CC2)nc(-c2ccc(C#N)c(F)c2)c1-c1ccc2cn(C)nc2c1 [Example 150, 4-[2-(4-aminopiperidin-1-yl)-6-methoxy-5-(2-methyl-2H-indazol-6-yl)pyrimidin-4-yl]-2-fluorobenzonitrile]	< 100 nM	< 100 nM
COc1nc(N2CCC(N)CC2)nc(-c2ccc(C#N)c(F)c2)c1-c1ccc2c(c1)nnn2C [Example 151, 4-[2-(4-aminopiperidin-1-yl)-6-methoxy-5-(1-methyl-1H-1,2,3-benzotriazol-5-yl)pyrimidin-4-yl]-2-fluorobenzonitrile]	< 100 nM	< 100 nM
COc1nc(N2CCC(N)CC2)nc(-c2ccc(C#N)cc2)c1-c1ccc2nn(C)cc2c1 [Example 152, 4-[2-(4-aminopiperidin-1-yl)-6-methoxy-5-(2-methyl-2H-indazol-5-yl)pyrimidin-4-yl]benzonitrile]	< 100 nM	< 100 nM
COc1nc(N2CCC(N)CC2)nc(-c2ccc(C#N)cc2)c1-c1cnn(CC(F)(F)F)c1 [Example 153, 4-[2-(4-aminopiperidin-1-yl)-6-methoxy-5-[1-(2,2,2-trifluoroethyl)-1H-pyrazol-4-yl]pyrimidin-4-yl]benzonitrile]	< 100 nM	< 100 nM
COc1nc(N2CCC(N)CC2)nc(-c2ccc(C#N)cc2)c1-c1ccc(N(C)C)nc1 [Example 155, 4-[2-(4-aminopiperidin-1-yl)-5-[6-(dimethylamino)pyridin-3-yl]-6-methoxypyrimidin-4-yl]benzonitrile]	< 100 nM	< 100 nM
COc1nc(N2CCC(N)CC2)nc(-c2ccc(C#N)c(F)c2)c1-c1cnc2c(c1)nnn2C [Example 157, 4-[2-(4-aminopiperidin-1-yl)-6-methoxy-5-{3-methyl-3H-[1,2,3]triazolo[4,5-b]pyridin-6-yl}pyrimidin-4-yl]-2-fluorobenzonitrile]	< 100 nM	< 100 nM
COc1nc(N2CCC(N)CC2)nc(-c2ccc(C#N)cc2)c1-c1cnc2c(c1)nnn2C [Example 158, 4-[2-(4-aminopiperidin-1-yl)-6-methoxy-5-{3-methyl-3H-[1,2,3]triazolo[4,5-b]pyridin-6-yl}pyrimidin-4-yl]benzonitrile]	< 100 nM	< 100 nM
COc1nc(N2CCC(N)CC2)nc(-c2ccc(C#N)c(F)c2)c1-c1cnc2c(cnn2C)c1 [Example 159, 4-[2-(4-aminopiperidin-1-yl)-6-methoxy-5-{1-methyl-1H-pyrazolo[3,4-b]pyridin-5-yl}pyrimidin-4-yl]-2-fluorobenzonitrile]	< 100 nM	< 100 nM
CNc1nc(N2CCC(N)CC2)nc(-c2ccc(C#N)c(F)c2)c1-c1ccc2c(cnn2C)c1 [Example 161, 4-[2-(4-aminopiperidin-1-yl)-5-(l-methyl-1H-indazol-5-yl)-6-(methylamino)pyrimidin-4-yl]-2-fluorobenzonitrile]	< 100 nM	< 100 nM
CNc1nc(N2CCC(N)CC2)nc(-c2ccc(C#N)cc2)c1-c1ccc2nn(C)cc2c1 [Example 163, 4-[2-(4-aminopiperidin-1-yl)-5-(2-methyl-2H-indazol-5-yl)-6-(methylamino)-pyrimidin-4-yl]-benzonitrile]	< 100 nM	< 100 nM
CNc1nc(N2CCC(N)CC2)nc(-c2ccc(C#N)cc2)c1-c1ccc2c(cnn2C)c1 [Example 164, 4-[2-(4-aminopiperidin-1-yl)-5-(1-methyl-1H-indazol-5-yl)-6-(methylamino)pyrimidin-4-yl]benzonitrile]	< 100 nM	< 100 nM
CNc1nc(N2CCC(N)CC2)nc(-c2ccc(C#N)c(F)c2)c1-c1ccc2c(c1)nnn2C [Example 165, 4-[2-(4-aminopiperidin-1-yl)-5-(1-methyl-1H-1,2,3-benzotriazol-5-yl)-6-(methylamino)pyrimidin-4-yl]-2-fluorobenzonitrile]	< 100 nM	< 100 nM
CCNc1nc(N2CCC(N)CC2)nc(-c2ccc(C#N)c(F)c2)c1-c1ccc2nn(C)cc2c1 [Example 166, 4-[2-(4-aminopiperidin-1-yl)-6-(ethylamino)-5-(2-methyl-2H-indazol-5-yl)-pyrimidin-4-yl]-2-fluorobenzonitrile]	< 100 nM	< 100 nM
CNc1nc(N2CCC(N)CC2)nc(-c2ccc(C#N)c(F)c2)c1-c1cnc(N(C)C)nc1 [Example 168, 4-[2-(4-aminopiperidin-1-yl)-5-[2-(dimethylamino)pyrimidin-5-yl]-6-(methylamino)pyrimidin-4-yl]-2-fluorobenzonitrile]	< 100 nM	< 100 nM
CNc1nc(N2CCC(N)CC2)nc(-c2ccc(C#N)c(F)c2)c1-c1ccc(N(C)C)nc1 [Example 169, 4-[2-(4-aminopiperidin-1-yl)-5-[6-(dimethylamino)pyridin-3-yl]-6-(methylamino)pyrimidin-4-yl]-2-fluorobenzonitrile]	< 100 nM	< 100 nM
CNc1nc(N2CCC(N)CC2)nc(-c2ccc(C#N)c(F)c2)c1-c1cnc2c(c1)nnn2C [Example 171, 4-[2-(4-aminopiperidin-1-yl)-5-{3-methyl-3H-[1,2,3]triazolo[4,5-b]pyridin-6-yl}-6-(methylamino)pyrimidin-4-yl]-2-fluorobenzonitrile]	< 100 nM	< 100 nM
CNc1nc(N2CCCNCC2)nc(-c2ccc(C#N)cc2)c1-c1ccc2nn(C)cc2c1 [Example 172, 4-[2-(1,4-diazepan-1-yl)-5-(2-methyl-2H-indazol-5-yl)-6-(methylamino)pyrimidin-4-yl]benzonitrile]	< 100 nM	< 100 nM
CNc1nc(N2CCC(N(C)C)CC2)nc(-c2ccc(C#N)cc2)c1-c1ccc2nn(C)cc2c1 [Example 173, 4-{2-[4-(dimethylamino)piperidin-1-yl]-5-(2-methyl-2H-indazol-5-yl)-6-(methylamino)pyrimidin-4-yl}benzonitrile]	< 100 nM	< 100 nM
CNc1nc(N2CCC(N)CC2)nc(-c2ccc(C#N)cc2)c1-c1cnn(CC(F)(F)F)c1 [Example 174, 4-[2-(4-aminopiperidin-1-yl)-6-(methylamino)-5-[1-(2,2,2-trifluoroethyl)-1H-pyrazol-4-yl]pyrimidin-4-yl]-benzonitrile]	< 100 nM	< 100 nM
CNc1nc(N2CCC(N)CC2)nc(-c2ccc(C#N)cc2)c1-c1cnc2c(c1)nnn2C [Example 176, 4-[2-(4-aminopiperidin-1-yl)-5-{3-methyl-3H-[1,2,3]triazolo[4,5-b]pyridin-6-yl}-6-(methylamino)pyrimidin-4-yl]benzonitrile]	< 100 nM	< 100 nM
